In ChEMBL document CHEMBL2440076, “New triarylpyrazoles as broad-spectrum anticancer agents: design, synthesis, and biological evaluation” (Eur J Med Chem, 2013):

Tests used:
Assay type in all cases: functional
SNB-75 = test: Growth inhibition of human SNB75 cells assessed as cell growth at 10^-7 M after 48 hrs by sulforhodamine B assay; conditions: SNB-75, 48 h, read-out: Activity
SF-295 = test: Growth inhibition of human SF295 cells assessed as cell growth at 10^-8 M after 48 hrs by sulforhodamine B assay; conditions: SF-295, 48 h, read-out: Activity
A498 = test: Growth inhibition of human A498 cells assessed as cell growth at 10^-5 M after 48 hrs by sulforhodamine B assay; conditions: A498, 48 h, read-out: Activity
U-251 [1] = test: Growth inhibition of human U251 cells assessed as cell growth at 10^-5 M after 48 hrs by sulforhodamine B assay; conditions: U-251, 48 h, read-out: Activity
SN12C [2] = test: Growth inhibition of human SN12C cells assessed as cell growth at 10^-7 M after 48 hrs by sulforhodamine B assay; conditions: read-out: Activity
NCI-H460 [3] = test: Growth inhibition of human NCI-H460 cells assessed as cell growth at 10^-5 M after 48 hrs by sulforhodamine B assay; conditions: NCI-H460, 48 h, read-out: Activity
KM12 = test: Growth inhibition of human KM12 cells assessed as cell growth at 10^-8 M after 48 hrs by sulforhodamine B assay; conditions: KM12, 48 h, read-out: Activity
UO-31 [4] = test: Growth inhibition of human UO31 cells assessed as cell growth at 10^-6 M after 48 hrs by sulforhodamine B assay; conditions: UO-31, 48 h, read-out: Activity
OVCAR-8 = test: Growth inhibition of human OVCAR8 cells assessed as cell growth at 10^-7 M after 48 hrs by sulforhodamine B assay; conditions: OVCAR-8, 48 h, read-out: Activity
HCT-116 = test: Growth inhibition of human HCT116 cells assessed as cell growth at 10^-6 M after 48 hrs by sulforhodamine B assay; conditions: HCT-116, 48 h, read-out: Activity
NCI-H23 [5] = test: Growth inhibition of human NCI-H23 cells assessed as cell growth at 10^-8 M after 48 hrs by sulforhodamine B assay; conditions: NCI-H23, 48 h, read-out: Activity
CCRF-CEM = test: Growth inhibition of human CCRF-CEM cells assessed as cell growth at 10^-8 M after 48 hrs by sulforhodamine B assay; conditions: read-out: Activity
RXF 393 [6] = test: Growth inhibition of human RXF393 cells assessed as cell growth at 10^-5 M after 48 hrs by sulforhodamine B assay; conditions: RXF 393, 48 h, read-out: Activity
COLO 205 = test: Growth inhibition of human COLO205 cells assessed as cell growth at 10^-5 M after 48 hrs by sulforhodamine B assay; conditions: COLO 205, 48 h, read-out: Activity
CAKI-1 = test: Growth inhibition of human CAKI-1 cells assessed as cell growth at 10^-7 M after 48 hrs by sulforhodamine B assay; conditions: CAKI-1, 48 h, read-out: Activity
[7] = Growth inhibition of human Hs 578T cells assessed as cell growth at 10^-8 M after 48 hrs by sulforhodamine B assay; conditions: read-out: Activity
SN12C [8] = test: Growth inhibition of human SN12C cells assessed as cell growth at 10^-8 M after 48 hrs by sulforhodamine B assay; conditions: read-out: Activity
SNB-19 = test: Growth inhibition of human SNB19 cells assessed as cell growth at 10^-5 M after 48 hrs by sulforhodamine B assay; conditions: SNB-19, 48 h, read-out: Activity
RXF 393 [9] = test: Growth inhibition of human RXF393 cells assessed as cell growth at 10^-4 M after 48 hrs by sulforhodamine B assay; conditions: RXF 393, 48 h, read-out: Activity
MDA-MB-468 = test: Growth inhibition of human MDA-MB-468 cells assessed as cell growth at 10^-8 M after 48 hrs by sulforhodamine B assay; conditions: MDA-MB-468, 48 h, read-out: Activity
U-251 [10] = test: Growth inhibition of human U251 cells assessed as cell growth at 10^-8 M after 48 hrs by sulforhodamine B assay; conditions: U-251, 48 h, read-out: Activity
SR = test: Growth inhibition of human SR cells assessed as cell growth at 10^-5 M after 48 hrs by sulforhodamine B assay; conditions: read-out: Activity
HOP-92 = test: Growth inhibition of human HOP92 cells assessed as cell growth at 10^-5 M after 48 hrs by sulforhodamine B assay; conditions: HOP-92, 48 h, read-out: Activity
HT-29 = test: Growth inhibition of human HT-29 cells assessed as cell growth at 10^-5 M after 48 hrs by sulforhodamine B assay; conditions: HT-29, 48 h, read-out: Activity
MCF7 = test: Growth inhibition of human MCF7 cells assessed as cell growth at 10^-8 M after 48 hrs by sulforhodamine B assay; conditions: MCF7, 48 h, read-out: Activity
SK-MEL-5 = test: Growth inhibition of human SK-MEL-5 cells assessed as cell growth at 10^-7 M after 48 hrs by sulforhodamine B assay; conditions: SK-MEL-5, 48 h, read-out: Activity
UACC-257 = test: Growth inhibition of human UACC257 cells assessed as cell growth at 10^-7 M after 48 hrs by sulforhodamine B assay; conditions: UACC-257, 48 h, read-out: Activity
MDA-MB-231 = test: Growth inhibition of human MDA-MB-231 cells assessed as cell growth at 10^-7 M after 48 hrs by sulforhodamine B assay; conditions: MDA-MB-231, 48 h, read-out: Activity
DU-145 = test: Growth inhibition of human DU145 cells assessed as cell growth at 10^-6 M after 48 hrs by sulforhodamine B assay; conditions: DU-145, 48 h, read-out: Activity
UO-31 [11] = test: Growth inhibition of human UO31 cells assessed as cell growth at 10^-7 M after 48 hrs by sulforhodamine B assay; conditions: UO-31, 48 h, read-out: Activity
OVCAR-5 = test: Growth inhibition of human OVCAR5 cells assessed as cell growth at 10^-8 M after 48 hrs by sulforhodamine B assay; conditions: OVCAR-5, 48 h, read-out: Activity
NCI-H23 [12] = test: Growth inhibition of human NCI-H23 cells assessed as cell growth at 10^-4 M after 48 hrs by sulforhodamine B assay; conditions: NCI-H23, 48 h, read-out: Activity
SF-268 = test: Growth inhibition of human SF268 cells assessed as cell growth at 10^-7 M after 48 hrs by sulforhodamine B assay; conditions: SF-268, 48 h, read-out: Activity
786-0 = test: Growth inhibition of human 786-0 cells assessed as cell growth at 10^-5 M after 48 hrs by sulforhodamine B assay; conditions: 786-0, 48 h, read-out: Activity
NCI-H460 [13] = test: Growth inhibition of human NCI-H460 cells assessed as cell growth at 10^-7 M after 48 hrs by sulforhodamine B assay; conditions: NCI-H460, 48 h, read-out: Activity
MDA-MB-435 = test: Growth inhibition of human MDA-MB-435 cells assessed as cell growth at 10^-4 M after 48 hrs by sulforhodamine B assay; conditions: MDA-MB-435, 48 h, read-out: Activity
IGROV-1 = test: Growth inhibition of human IGROV1 cells assessed as cell growth at 10^-6 M after 48 hrs by sulforhodamine B assay; conditions: IGROV-1, 48 h, read-out: Activity

COc1cc(-c2nn(-c3cccc(NC(=O)c4ccccc4)c3)cc2-c2ccncc2)ccc1Cl
growth at 0.1 µM (SNB-75): 86%
growth at 0.01 µM (SF-295): 93%
growth at 10 µM (A498): -19%
growth at 10 µM (U-251 [1]): 17%
growth at 0.1 µM (SN12C [2]): 98%
growth at 10 µM (NCI-H460 [3]): 7%
growth at 0.01 µM (KM12): 101%
growth at 1 µM (UO-31 [4]): 42%
growth at 0.1 µM (OVCAR-8): 105%
growth at 1 µM (HCT-116): 31%
growth at 0.01 µM (NCI-H23 [5]): 92%
growth at 0.01 µM (CCRF-CEM): 97%
growth at 10 µM (RXF 393 [6]): -9%
growth at 10 µM (COLO 205): -31%
growth at 0.1 µM (CAKI-1): 99%
growth at 0.01 µM [7]: 103%
growth at 0.01 µM (SN12C [8]): 96%
growth at 10 µM (SNB-19): 30%
growth at 100 µM (RXF 393 [9]): -8%
growth at 0.01 µM (MDA-MB-468): 90%
growth at 0.01 µM (U-251 [10]): 96%
growth at 10 µM (SR): 2%
growth at 10 µM (HOP-92): -8%
growth at 10 µM (HT-29): 7%
growth at 0.01 µM (MCF7): 92%
growth at 0.1 µM (SK-MEL-5): 91%
growth at 0.1 µM (UACC-257): 99%
growth at 0.1 µM (MDA-MB-231): 101%
growth at 1 µM (DU-145): 44%
growth at 0.1 µM (UO-31 [11]): 81%
growth at 0.01 µM (OVCAR-5): 95%
growth at 100 µM (NCI-H23 [12]): 18%
growth at 0.1 µM (SF-268): 94%
growth at 10 µM (786-0): 24%
growth at 0.1 µM (NCI-H460 [13]): 99%
growth at 100 µM (MDA-MB-435): -67%
growth at 1 µM (IGROV-1): 35%

COc1cc(-c2nn(-c3cccc(NC(=O)c4ccc(N5CCOCC5)c(C(F)(F)F)c4)c3)cc2-c2ccncc2)ccc1Cl
growth at 0.1 µM (SNB-75): 75%
growth at 0.01 µM (SF-295): 89%
growth at 10 µM (A498): -32%
growth at 10 µM (U-251 [1]): -17%
growth at 0.1 µM (SN12C [2]): 90%
growth at 10 µM (NCI-H460 [3]): 1%
growth at 0.01 µM (KM12): 108%
growth at 1 µM (UO-31 [4]): 33%
growth at 0.1 µM (OVCAR-8): 91%
growth at 1 µM (HCT-116): 33%
growth at 0.01 µM (NCI-H23 [5]): 97%
growth at 0.01 µM (CCRF-CEM): 94%
growth at 10 µM (RXF 393 [6]): -41%
growth at 10 µM (COLO 205): -84%
growth at 0.1 µM (CAKI-1): 87%
growth at 0.01 µM [7]: 96%
growth at 0.01 µM (SN12C [8]): 95%
growth at 10 µM (SNB-19): 22%
growth at 100 µM (RXF 393 [9]): -27%
growth at 0.01 µM (MDA-MB-468): 95%
growth at 0.01 µM (U-251 [10]): 101%
growth at 10 µM (SR): 4%
growth at 10 µM (HOP-92): -26%
growth at 10 µM (HT-29): -43%
growth at 0.01 µM (MCF7): 87%
growth at 0.1 µM (SK-MEL-5): 53%
growth at 0.1 µM (UACC-257): 74%
growth at 0.1 µM (MDA-MB-231): 79%
growth at 1 µM (DU-145): 16%
growth at 0.1 µM (UO-31 [11]): 64%
growth at 0.01 µM (OVCAR-5): 95%
growth at 100 µM (NCI-H23 [12]): -9%
growth at 0.1 µM (SF-268): 91%
growth at 10 µM (786-0): -14%
growth at 0.1 µM (NCI-H460 [13]): 88%
growth at 100 µM (MDA-MB-435): -34%
growth at 1 µM (IGROV-1): 33%
